The subject of this assay is P388 leukemia ip, CD2F1 mice, survival T/C. As to the kind of experiment: NCI In Vivo Anticancer Drug Screen. Data for tumor model P388 Leukemia (intraperitoneal) in CD2F1 (CDF1) mice. Particulars: endpoint: median survival time, higher = longer survival. Put shortly: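 Mice carrying the transplanted tumor received test compound or vehicle. Survival was recorded in each group, and the value is the treated-group measurement divided by that of the vehicle-treated control group.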

The mark [1] stands for this setting: dose: 50.0 mg/kg/injection, schedule: Q01DX009 (ip), vehicle: suspension in saline.
Where [2] appears, read: dose: 100.0 mg/kg/injection, schedule: Q01DX009 (ip), vehicle: suspension in saline.
Where [3] appears, read: dose: 50.0 mg/kg/injection, schedule: Q01DX005 (ip), vehicle: saline with Tween-80.
The mark [4] stands for this setting: dose: 100.0 mg/kg/injection, schedule: Q01DX005 (ip), vehicle: saline with Tween-80.
Where [5] appears, read: dose: 200.0 mg/kg/injection, schedule: Q01DX005 (ip), vehicle: saline with Tween-80.
The mark [6] stands for this setting: dose: 60.0 mg/kg/injection, schedule: Q01DX005 (ip), vehicle: saline with Tween-80.
The mark [7] stands for this setting: dose: 120.0 mg/kg/injection, schedule: Q01DX005 (ip), vehicle: saline with Tween-80.
The mark [8] stands for this setting: dose: 240.0 mg/kg/injection, schedule: Q01DX005 (ip), vehicle: saline with Tween-80.
The mark [9] stands for this setting: dose: 25.0 mg/kg/injection, schedule: Q01DX009 (ip), vehicle: saline with Tween-80.
Setting [10] is: dose: 50.0 mg/kg/injection, schedule: Q01DX009 (ip), vehicle: Klucel (hydroxypropylcellulose) (HPC).
The mark [11] stands for this setting: dose: 100.0 mg/kg/injection, schedule: Q01DX009 (ip), vehicle: Klucel (hydroxypropylcellulose) (HPC).
[12] abbreviates: dose: 50.0 mg/kg/injection, schedule: Q01DX005 (ip), vehicle: Klucel (hydroxypropylcellulose) (HPC).
The mark [13] stands for this setting: dose: 100.0 mg/kg/injection, schedule: Q01DX005 (ip), vehicle: Klucel (hydroxypropylcellulose) (HPC).
Setting [14] is: dose: 100.0 mg/kg/injection, schedule: Q04DX003 (ip), vehicle: saline.
Where [15] appears, read: dose: 200.0 mg/kg/injection, schedule: Q01DX009 (ip), vehicle: saline with Tween-80.
Setting [16] is: dose: 200.0 mg/kg/injection, schedule: Q04DX003 (ip), vehicle: saline.
The mark [17] stands for this setting: dose: 400.0 mg/kg/injection, schedule: Q04DX003 (ip), vehicle: saline.
The mark [18] stands for this setting: dose: 100.0 mg/kg/injection, schedule: Q01DX009 (ip), vehicle: saline with Tween-80.
The mark [19] stands for this setting: dose: 100.0 mg/kg/injection, schedule: Q04DX002 (ip), vehicle: saline with Tween-80.
Setting [20] is: dose: 200.0 mg/kg/injection, schedule: Q04DX002 (ip), vehicle: saline with Tween-80.
The mark [21] stands for this setting: dose: 400.0 mg/kg/injection, schedule: Q04DX002 (ip), vehicle: saline with Tween-80.

The source of these data is PubChem BioAssay AID330 (DTP/NCI, 2004).

Several values for one entry are separate records, joined by “and”; a condition that tells them apart may be missing. Identical values can stand only once. Inconclusive results and toxic doses are left out.

Turning to `COc1ccc(SCC(=O)c2ccc([N+](=O)[O-])o2)cc1`, the T/C reads like this: under setting [1], 114 % of control; under setting [2], 104 % of control.

Regarding `Cc1ccccc1C(=O)NC1c2ccccc2Oc2ccccc21`, the T/C under setting [3] is 100 % of control, the T/C under setting [4] was 100 % of control and the T/C under setting [5] is 100 % of control.

Consider `O=C1CSC(c2ccc(F)cc2F)N1c1nncs1` (centres undefined), for which the T/C under setting [6] is 92 % of control and the T/C under setting [7] is 91 % of control.

Take `O=NN(CCF)C(=O)NCCF`: the T/C by setting is: (dose: 0.11 mg/kg/injection, schedule: Q01DX009 (ip), vehicle: saline) 109 % of control; (dose: 0.16 mg/kg/injection, schedule: Q01DX009 (ip), vehicle: saline) 109 % of control; (dose: 0.25 mg/kg/injection, schedule: Q01DX009 (ip), vehicle: saline) 122 % of control; (dose: 2.5 mg/kg/injection, schedule: Q01DX009 (ip), vehicle: saline) 236 % of control.

For the molecule `Cc1[nH]c2c(ccc3c2ccc2c(=O)c(C)c(C)[nH]c23)c(=O)c1C`, the T/C under setting [3] is 95 % of control, the T/C under setting [4] is 96 % of control and the T/C under setting [5] is 95 % of control.

For `CC1(C)CC(=O)C(C(c2ccc3c(c2)OCO3)N2CCOCC2)C(=O)C1` (centres undefined), the T/C was 117 % of control (dose: 60.0 mg/kg/injection, schedule: Q01DX005 (ip), vehicle: Klucel (hydroxypropylcellulose) (HPC)) and 109 % of control (dose: 120.0 mg/kg/injection, schedule: Q01DX005 (ip), vehicle: Klucel (hydroxypropylcellulose) (HPC)).

As to `CCCCNC(=O)Nc1ccc(C(=O)OCCCC)cc1`, the T/C by setting is: (dose: 100.0 mg/kg/injection, schedule: Q04DX003 (ip), vehicle: saline with Tween-80) 100 % of control; (dose: 200.0 mg/kg/injection, schedule: Q04DX003 (ip), vehicle: saline with Tween-80) 90 % of control.

With `Cc1ccc(NC(=O)CCCC(=O)C(C#N)c2ccccc2C)cc1C` (centres undefined), the T/C was 113 % of control under setting [6], 103 % of control under setting [7] and 102 % of control under setting [8].

`CC1(C)COCN1COCCCOCN1COCC1(C)C`: the T/C by setting is: (dose: 12.5 mg/kg/injection, schedule: Q01DX009 (ip), vehicle: saline with Tween-80) 102 % of control; under setting [9], 120 % of control; (dose: 150.0 mg/kg/injection, schedule: Q01DX009 (ip), vehicle: saline with Tween-80) 118 % of control.

As for `COc1ccc(NC(CCN2CCN(c3ccccc3)CC2)=NC(C)(C)C)cc1`, the T/C is 96 % of control under setting [10] and 96 % of control under setting [11].

On to `CCOP(=S)(N/N=C(/c1ccc(C)s1)C(F)(F)F)OCC`, for which the T/C runs as follows: under setting [12], 104 % of control; under setting [13], 110 % of control; (dose: 200.0 mg/kg/injection, schedule: Q01DX005 (ip), vehicle: Klucel (hydroxypropylcellulose) (HPC)) 114 % of control.

As to `CCc1cccc(CC)c1N1C(=O)c2cccnc2C1=O`, the T/C (dose: 50.0 mg/kg/injection, schedule: Q01DX009 (ip), vehicle: saline) was 100 % of control; the T/C (dose: 100.0 mg/kg/injection, schedule: Q01DX009 (ip), vehicle: saline) was 97 % of control; the T/C (dose: 200.0 mg/kg/injection, schedule: Q01DX009 (ip), vehicle: saline) is 93 % of control.

In the case of `N#Cc1c(N)nc(N)nc1Nc1ccc(Cl)cc1`, the T/C by setting is: under setting [6], 113 % of control; under setting [7], 110 % of control; under setting [8], 115 % of control.

`Cc1ccccc1OCC1COCN(C(C)(C)C)CO1` (centres undefined): the T/C is 100 % of control under setting [6], 107 % of control under setting [7] and 102 % of control under setting [8].

Turning to `O=[N+]([O-])c1ccc2c(N=Nc3c(O)ccc4ccccc34)c(O)cc(S(=O)(=O)O)c2c1`, the T/C is, setting by setting: under setting [14], 100 % of control; (dose: 132.0 mg/kg/injection, schedule: Q01DX009 (ip), vehicle: saline with Tween-80) 109 % of control; under setting [15], 109 % of control; under setting [16], 100 % of control; (dose: 300.0 mg/kg/injection, schedule: Q01DX009 (ip), vehicle: saline with Tween-80) 113 % of control; under setting [17], 111 % of control.

Regarding `O=C1CSC2=NCCN12`, the T/C was 101 % of control under setting [1]; 107 % of control under setting [2]; 115 % of control (dose: 200.0 mg/kg/injection, schedule: Q01DX009 (ip), vehicle: suspension in saline).

For the molecule `CCOC(=O)N1CCc2nc3ccc(Cl)cc3cc21`, the T/C is 117 % of control under setting [9]; 98 % of control (dose: 50.0 mg/kg/injection, schedule: Q01DX009 (ip), vehicle: saline with Tween-80); 99 % of control under setting [18]; 108 % of control under setting [15].

`Cc1cc[n+](-c2nc3c([O-])n(C)c(=O)n(C)c-3n2)cc1`: the T/C is 99 % of control under setting [14], 99 % of control under setting [16] and 94 % of control under setting [17].

For `COc1ccc(OC)c(/C=C/c2cnnc3ccccc23)c1`, the T/C is 100 % of control (dose: 18.75 mg/kg/injection, schedule: Q04DX003 (ip), vehicle: Klucel (hydroxypropylcellulose) (HPC)); 111 % of control (dose: 37.5 mg/kg/injection, schedule: Q04DX003 (ip), vehicle: Klucel (hydroxypropylcellulose) (HPC)); 100 % of control (dose: 75.0 mg/kg/injection, schedule: Q04DX003 (ip), vehicle: Klucel (hydroxypropylcellulose) (HPC)); 106 % of control (dose: 150.0 mg/kg/injection, schedule: Q04DX003 (ip), vehicle: Klucel (hydroxypropylcellulose) (HPC)); 103 % of control (dose: 300.0 mg/kg/injection, schedule: Q04DX003 (ip), vehicle: Klucel (hydroxypropylcellulose) (HPC)).

Consider `O=C1N=C2SCCN2C(=O)C1Nc1ccc(Cl)cc1` (centres undefined), for which the T/C under setting [19] is 99 % of control, the T/C under setting [20] was 100 % of control and the T/C under setting [21] is 98 % of control.

Consider `CCOC(=O)c1cc(/C=C/c2cccc(Cl)c2)on1`, for which the T/C runs as follows: (dose: 15.0 mg/kg/injection, schedule: Q01DX005 (ip), vehicle: saline with Tween-80) 93 % of control; (dose: 30.0 mg/kg/injection, schedule: Q01DX005 (ip), vehicle: saline with Tween-80) 100 % of control and 90 % of control; under setting [6], 90 % of control; under setting [7], 93 % of control; under setting [8], 95 % of control.

Regarding `C=C(C)C(=NC(C)(C)C)N1CCCCC1`, the T/C was 100 % of control under setting [12] and 102 % of control under setting [13].

Turning to `COc1ccccc1/C(=N/[N+](C)(C)C)C(C)C`, the T/C reads like this: (dose: 6.25 mg/kg/injection, schedule: Q04DX002 (ip), vehicle: saline) 100 % of control; (dose: 12.5 mg/kg/injection, schedule: Q04DX002 (ip), vehicle: saline) 100 % of control; (dose: 25.0 mg/kg/injection, schedule: Q04DX002 (ip), vehicle: saline) 93 % of control.

With `Oc1cc(-c2ccc(Cl)cc2)c(O)cc1CN1CCOCC1`, the T/C runs as follows: under setting [19], 92 % of control; under setting [20], 91 % of control; under setting [21], 92 % of control.

Regarding `CC1NC(C)c2c(ccc3ccccc23)O1` (centres undefined), the T/C runs as follows: under setting [3], 100 % of control; under setting [4], 100 % of control; under setting [5], 97 % of control.

Take `O=C(O)c1ccc(Cl)c(Cl)c1`: the T/C is, setting by setting: (dose: 12.5 mg/kg/injection, schedule: Q01DX009 (ip), vehicle: Klucel (hydroxypropylcellulose) (HPC)) 101 % of control; (dose: 25.0 mg/kg/injection, schedule: Q01DX009 (ip), vehicle: Klucel (hydroxypropylcellulose) (HPC)) 110 % of control; under setting [10], 99 % of control; under setting [11], 108 % of control.

`CN(C)CCN(C)C`: the T/C by setting is: under setting [18], 100 % of control; under setting [15], 95 % of control.
